# Assay results: ChEMBL document CHEMBL6071176, “Development of Phloroglucinol-Linked Tris-Quaternary Ammonium Salt Antimicrobial Peptide Mimics with Low Cytotoxicity and Broad-Spectrum Antibacterial Activity” (J Med Chem, 2024)
# Calls of active or inactive are those of the source. The calls are words filed in the database; no cut-off is given here. *1 amine or outer side, *2 acyl side, *3 side chain or, on linkers, in order; H or OH if unused. Where a SMILES comes first, the peptide text is derived from it. Bridges are numbered along the chain shown (N, C = ends). Side-chain parts run from the residue outwards. [ ]: non-standard residue; d: D form. The star is where a group is joined. X1 = C[C@@H](O)[C@H](CN([C@@H](CCN)C(=O)[*:2])[*:1])N[*:3]; Octanoyl(6-Me) = CCC(C)CCCCC(=O)*; Dab = NCC[C@H](N)C(=O)O
# What was measured:
# [1] = system: Staphylococcus aureus; assay: Antibacterial activity against NDM-1 gene-resistant Staphylococcus aureus assessed as inhibition of bacterial growth incubated for 18 hrs by CLSI guidelines based assay; assay type: functional
# [2] = system: Staphylococcus aureus; assay: Anti-bacterial activity against 100 times rifampicin induced persistent cells of Staphylococcus aureus assessed as reduction in persistent cells at 32 times of MIC; assay type: functional
# [3] = system: Staphylococcus aureus; assay: Antibacterial activity against methicillin-resistant Staphylococcus aureus assessed as inhibition of bacterial growth measured immediately after addition in presence of plasma; assay type: functional, organism-based
# [4] = system: Escherichia coli; assay: Antimicrobial activity against Escherichia coli assessed as inhibition of growth incubated for 18 hrs by CLSI guidelines based assay; assay type: functional
# [5] = system: Staphylococcus aureus; assay: In vivo antibacterial activity against methicillin-resistant Staphylococcus aureus subcutaneously infected in SPF female Kunming mouse model assessed as bacteria count in dissected mouse at 10 mg/kg/day injected into blister after 6 hrs of infection measured after 6 consecutive treatments; assay type: functional, organism-based
# [6] = system: Staphylococcus aureus; assay: Bactericidal activity against early exponential phase Staphylococcus aureus assessed as bacterial killing at 6 ug/ml incubated for 12 hrs by time-kill assay; assay type: functional, organism-based; conditions: dose 6.0 µg/ml
# [7] = system: Staphylococcus aureus; assay: Bactericidal activity against early exponential phase Staphylococcus aureus assessed as bacterial killing at 6 ug/ml incubated for 4 hrs by time-kill assay; assay type: functional, organism-based; conditions: dose 6.0 µg/ml
# [8] = system: Staphylococcus aureus; assay: Anti-biofilim activity against Staphylococcus aureus biofilm assessed bio-film thickness at 32 ug/ml measured after 24 hrs incubation by SYTO 9 staining based […] laser scanning microscopy (CLSM) (reference value: 29.5 microm); assay type: functional; conditions: dose 32 µg/ml
# [9] = Hemolytic activity in sheep red blood cells measured after 1 hr incubation; assay type: toxicity, cell-based, Ovis aries, Erythrocyte
# [10] = system: Staphylococcus aureus; assay: Antibacterial activity against methicillin-resistant Staphylococcus aureus assessed as inhibition of bacterial growth incubated for 18 hrs by CLSI guidelines based assay; assay type: functional
# [11] = Hemolytic activity in red blood cells (unknown origin); assay type: toxicity, cell-based, Erythrocyte
# [12] = Cytotoxicity against human Gastric mucosal cells measured after 24 hrs by CCK-8 assay; assay type: toxicity, cell-based, Gastric mucosal cell
# [13] = Selectivity index, ratio of HC50 for RBC (unknown origin) to MIC for Staphylococcus aureus; assay type: toxicity, cell-based; conditions: red blood cells; read-out: Selectivity Index
# [14] = system: Staphylococcus aureus; assay: Antibacterial activity against Staphylococcus aureus; assay type: functional
# [15] = system: Staphylococcus aureus; assay: Resistance development in Staphylococcus aureus assessed as increase in MIC measured after 20 passages of continues culture; assay type: functional
# [16] = system: Escherichia coli; assay: Bactericidal activity against late exponential phase Escherichia coli assessed as bacterial killing by measuring bacterial count at 8 ug/ml incubated for 12 hrs by time-kill assay (reference value: 10^8.4 CFU/ml); assay type: functional; conditions: dose 8 µg/ml
# [17] = system: Escherichia coli; assay: Bactericidal activity against early exponential phase Escherichia coli assessed as bacterial killing at 6 ug/ml incubated for 6 hrs by time-kill assay; assay type: functional, organism-based; conditions: dose 6.0 µg/ml
# [18] = system: Escherichia coli; assay: Bactericidal activity against early exponential phase Escherichia coli assessed as bacterial killing at 6 ug/ml incubated for 12 hrs by time-kill assay; assay type: functional, organism-based; conditions: dose 6.0 µg/ml
# [19] = system: Staphylococcus aureus; assay: Antimicrobial activity against Staphylococcus aureus assessed as inhibition of growth incubated for 18 hrs by CLSI guidelines based assay; assay type: functional
# [20] = system: Enterococcus faecalis; assay: Antimicrobial activity against Enterococcus faecalis assessed as inhibition of growth incubated for 18 hrs by CLSI guidelines based assay; assay type: functional
# [21] = Selectivity index, ratio of HC50 for sheep red blood cells to MIC for Staphylococcus aureus; assay type: toxicity, cell-based, RBC; conditions: read-out: Selectivity Index
# [22] = system: Stenotrophomonas maltophilia; assay: Antimicrobial activity against Stenotrophomonas maltophilia assessed as inhibition of growth incubated for 18 hrs by CLSI guidelines based assay; assay type: functional
# [23] = Hemolytic activity in human erythrocytes; assay type: toxicity, cell-based, Erythrocyte
# [24] = Selectivity index, ratio of HC50 for human erythrocytes to MIC for methicillin-resistant Staphylococcus aureus; assay type: toxicity, cell-based, RBC; conditions: read-out: Selectivity Index
# [25] = system: Staphylococcus aureus; assay: Antibacterial activity against methicillin-resistant Staphylococcus aureus; assay type: functional
# [26] = system: Cell membrane; assay: Induction of Cytoplasmic membrane depolarization in Staphylococcus aureus assessed as increase in fluorescence intensity measured at 6 times of MIC measured after 4 hrs by DiSC3(5) dye-based fluorescence assay; assay type: subcellular
smiles,measurement,setting,value
CO[C@H]1/C=C/O[C@@]2(C)Oc3c(C)c(O)c4c(O)c(c(/C=N/N5CCN(C)CC5)c(O)c4c3C2=O)NC(=O)/C(C)=C\C=C\[C@H](C)[C@H](O)[C@@H](C)[C@@H](O)[C@@H](C)[C@H](OC(C)=O)[C@@H]1C [RIFAMPIN],MIC90,[1],> 32 µg/mL
CN[C@H](CC(C)C)C(=O)N[C@H]1C(=O)N[C@@H](CC(N)=O)C(=O)N[C@H]2C(=O)N[C@H]3C(=O)N[C@H](C(=O)N[C@H](C(=O)O)c4cc(O)cc(O)c4-c4cc3ccc4O)[C@H](O)c3ccc(c(Cl)c3)Oc3cc2cc(c3O[C@@H]2O[C@H](CO)[C@@H](O)[C@H](O)[C@H]2O[C@H]2C[C@](C)(N)[C@H](O)[C@H](C)O2)Oc2ccc(cc2Cl)[C@H]1O [VANCOMYCIN],Activity,[2],3.2 log10CFU/ml
same,Activity,[3],Active
same,MIC,[4],2 µg/mL
same,Activity,[5],Active
same,Activity,[6],Active
same,Activity,[7],Active
same,Activity,[8],22.1 um
same,HC50 at 1 h,[9],805 µg/mL
C[C@H]1c2cccc(O)c2C(=O)C2=C(O)[C@]3(O)C(=O)C(C(N)=O)=C(O)[C@@H](N(C)C)[C@@H]3[C@@H](O)[C@@H]21 [DOXYCYCLINE ANHYDROUS],MIC90,[1],> 32 µg/mL
same,MIC90,[10],≥ 16 µg/mL
CC[C@H]1OC(=O)[C@H](C)[C@@H](O[C@H]2C[C@@](C)(OC)[C@@H](O)[C@H](C)O2)[C@H](C)[C@@H](O[C@@H]2O[C@H](C)C[C@H](N(C)C)[C@H]2O)[C@](C)(O)C[C@@H](C)C(=O)[C@H](C)[C@@H](O)[C@]1(C)O [ERYTHROMYCIN],MIC90,[1],> 32 µg/mL
CCCCCCCNC(=O)C[N+](C)(C)CCCCCCCCCCCC[N+](C)(C)CC(=O)NCCCCCCC.[Br-].[Br-],MIC,[4],0.062 µg/mL
same,HC50,[11],1220 µg/mL
same,CC50 at 24 h,[12],38.1 µg/mL
same,selectivity ratio,[13],2440
same,MIC,[14],0.5 µg/mL
CC(C)CCCCC(=O)N[C@@H](CCN)C(=O)N[C@@H](CN[C@@H](CCN)C(=O)N[C@H]1CCNC(=O)[C@H]([C@@H](C)O)NC(=O)[C@H](CCN)NC(=O)[C@H](CCN)NC(=O)[C@H](CC(C)C)NC(=O)[C@@H](CC(C)C)NC(=O)[C@H](CCN)NC1=O)[C@@H](C)O.CCC(C)CCCCC(=O)N[C@@H](CCN)C(=O)N[C@@H](CN[C@@H](CCN)C(=O)N[C@H]1CCNC(=O)[C@H]([C@@H](C)O)NC(=O)[C@H](CCN)NC(=O)[C@H](CCN)NC(=O)[C@H](CC(C)C)NC(=O)[C@@H](CC(C)C)NC(=O)[C@H](CCN)NC1=O)[C@@H](C)O (stereo partly drawn) (H-[X1]([Dab-Octanoyl(6-Me)])[Dab][Dab][dL]L[Dab][Dab]T; lactam 2-C),MIC,[15],4 µg/mL
CO[C@@]1(NC(=O)C(C(=O)O)c2ccc(O)cc2)C(=O)N2C(C(=O)O)=C(CSc3nnnn3C)CO[C@@H]21 (stereo partly drawn) [MOXALACTAM],Activity,[16],1 10^4CFU/ml
same,Activity,[17],Active
same,Activity,[18],Active
CCn1cc(C(=O)O)c(=O)c2cc(F)c(N3CCNCC3)cc21 [NORFLOXACIN],MIC,[15],4 µg/mL
CNC(C)[C@@H]1CC[C@@H](N)[C@@H](O[C@H]2[C@H](O)[C@@H](O[C@H]3OC[C@](C)(O)[C@H](NC)[C@H]3O)[C@H](N)C[C@@H]2N)O1.CN[C@@H]1[C@@H](O)[C@@H](O[C@@H]2[C@@H](O)[C@H](O[C@H]3O[C@H](C(C)N)CC[C@H]3N)[C@@H](N)C[C@H]2N)OC[C@]1(C)O.CN[C@@H]1[C@@H](O)[C@@H](O[C@@H]2[C@@H](O)[C@H](O[C@H]3O[C@H](CN)CC[C@H]3N)[C@@H](N)C[C@H]2N)OC[C@]1(C)O (stereo partly drawn),MIC90,[1],> 32 µg/mL
CCCCCCCC[N+](C)(C)CCCCCOc1cc(OCCCCC[N+](C)(C)CCCCCCCC)cc(OCCCCC[N+](C)(C)CCCCCCCC)c1.[Br-].[Br-].[Br-],MIC,[4],4 µg/mL
same,MIC,[19],0.5 µg/mL
same,MIC,[20],2 µg/mL
same,CC50 at 24 h,[12],< 30 µg/mL
same,selectivity ratio,[21],1420
same,HC50 at 1 h,[9],711 µg/mL
same,MIC,[22],2 µg/mL
CCCCCCN(CCCOc1ccccc1-c1ccccc1OCCCN(CCCCCC)C(=O)[C@@H](N)CCCCN)C(=O)[C@@H](N)CCCCN.Cl.Cl.Cl.Cl,HC50,[23],> 1000 µg/mL
same,selectivity ratio,[24],> 2000
same,MIC,[25],0.5 µg/mL
CC[C@H](C)[C@H](NC(=O)CN)C(=O)NCC(=O)N[C@@H](C)C(=O)N[C@H](C(=O)N[C@@H](CC(C)C)C(=O)N[C@@H](CCCCN)C(=O)N[C@H](C(=O)N[C@@H](CC(C)C)C(=O)N[C@H](C(=O)N[C@H](C(=O)NCC(=O)N[C@@H](CC(C)C)C(=O)N1CCC[C@H]1C(=O)N[C@@H](C)C(=O)N[C@@H](CC(C)C)C(=O)N[C@H](C(=O)N[C@@H](CO)C(=O)N[C@@H](Cc1c[nH]c2ccccc12)C(=O)N[C@H](C(=O)N[C@@H](CCCCN)C(=O)N[C@@H](CCCNC(=N)N)C(=O)N[C@@H](CCCCN)C(=O)N[C@@H](CCCNC(=N)N)C(=O)N[C@@H](CCC(N)=O)C(=O)N[C@@H](CCC(N)=O)C(N)=O)[C@@H](C)CC)[C@@H](C)CC)[C@@H](C)O)[C@@H](C)O)C(C)C)C(C)C,Activity,[26],Active
CCCCCCNC(=O)C[N+](C)(C)CCCCCCCCCCCC[N+](C)(C)CC(=O)NCCCCCC.[Br-].[Br-],MIC,[19],1 µg/mL
same,HC50,[11],805 µg/mL
same,CC50 at 24 h,[12],19.1 µg/mL
same,selectivity ratio,[21],> 1280
same,HC50 at 1 h,[9],> 1280 µg/mL
same,selectivity ratio,[13],805
same,MIC,[14],1 µg/mL
CCCCCCN(Cc1ccc(-c2ccc(CN(CCCCCC)C(=O)[C@@H](N)CCCCN)cc2)cc1)C(=O)[C@@H](N)CCCCN.O=C(O)C(F)(F)F.O=C(O)C(F)(F)F.O=C(O)C(F)(F)F.O=C(O)C(F)(F)F,selectivity ratio,[24],74.2
same,MIC,[25],3.1 µg/mL
